Reference: PMC10056443, “Derivatives of Amaryllidaceae Alkaloid Ambelline as Selective Inhibitors of Hepatic Stage of Plasmodium berghei Infection In Vitro” (Pharmaceutics, 2023)
Like-named read-outs stand apart in the source and are kept apart here.

Tests used:
[1] = Cytotoxicity assessment in vitro (MTT assay); format: cell-based; settings: human
Protocol: (§1) HepG2 cells of human hepatocellular carcinoma (ATCC HB-8065; passage 20–25), purchased from Health Protection Agency Culture Collections (ECACC, Salisbury, UK), were cultured in Minimum Essential Medium Eagle supplemented with 10% v/v fetal bovine serum and 1% v/v L-glutamine solution (Sigma-Aldrich, St. Louis, MO, USA) at 37 °C in a humidified atmosphere containing 5% CO2. For passaging, the cells were treated with trypsin/EDTA (Sigma-Aldrich, St. Louis, MO, USA) at 37 °C and then harvested. For the cytotoxicity evaluation, the cells treated with the test substances were used, while untreated HepG2 cells served as a control group. The cells were seeded in a 96-well plate at a density of 1 × 10^4 cells per well and incubated for 24 h. All tested compounds were dissolved in DMSO to prepare 10 mM stock solutions and diluted to the desired concentration just before the cell treatment. Cytotoxicity of all studied derivatives was screened at 10 μM concentration, and all samples were measured in triplicates. Positive and negative controls were also included. Plates were incubated for 24 h in a humidified atmosphere containing 5% CO2 at 37 °C. After the incubation, a solution of thiazolyl blue tetrazolium bromide (Sigma-Aldrich, St. Louis, MO, USA) in RPMI 1640 medium without phenol red (BioTech, Prague, Czech Republic) was added and incubated for 3 h in a humidified atmosphere containing 5% CO2 at 37 °C. Afterwards, formazan crystals were dissolved in DMSO, and the absorbance of samples was recorded at 570 nm (Synergy Neo2 Multi-Mode Reader NEO2SMALPHAB; BioTek, Winooski, VT, USA).

[2] = system: HepG2 cells; assay: Cytotoxicity assessment in vitro (MTT assay); format: cell-based
Protocol: as §1

[3] = system: Huh-7 cell line; assay: Huh-7 cell confluency by alamarBlue assay during hepatic-stage test; format: cell-based
Protocol: (§2) Activity against the hepatic stage of P. berghei infection was assessed using the human hepatoma cell line Huh-7 (deposited at the Japanese Collection of Research Bioresources under JCRB0403). The protocol was previously comprehensively described by Prudêncio et al. and by Ploemen et al.. Briefly, cell culture medium consisted of 1640 RPMI medium supplemented with 10% v/v fetal calf serum, 1% v/v L-glutamine, 1% v/v nonessential amino acids, 1% v/v penicillin/streptomycin, and 10 mM HEPES, pH 7. Cells were seeded in 96-well plates at a density of 1 × 10^4 cells per well in 100 µL of culture medium and incubated at 37 °C with 5% CO2 for approximately 18 h. […] The culture medium was substituted by infection medium with diluted compounds 1 hour in advance of infection. Luciferase-expressing P. berghei sporozoites (PbA-LuciGFPcon spz) were freshly obtained through the dissection of salivary glands from infected female Anopheles stephensi mosquitoes. Sporozoites were added to the cells at 1:1 ratio, i.e., 1 × 10^4 sporozoites were added per well, and then subjected to centrifugation at 1800× g for 5 min. The plate was then incubated for 46 h at 37 °C with 5% CO2, at which time Huh-7 cell confluency was indirectly assessed by the alamarBlue assay (Invitrogen, Waltham, MA, USA), as reported in the manufacturer’s protocol. Parasite load was assessed 48 h post-infection by a bioluminescence assay, as reported by the manufacturer (Biotium, Fremont, CA, USA). GraphPad Prism 8 (GraphPad Software, Inc., La Jolla, CA, USA) was used to obtain IC50 values using nonlinear regression analysis to fit the dose-response curves normalized results.

[4] = system: hepatic stage of P. berghei; assay: In vitro activity against P. berghei hepatic stages (luciferase-expressing sporozoites in Huh-7 cells, bioluminescence); format: cell-based, Plasmodium berghei; design: INFECTION (IC50 determination): unit not given here; settings: for activity at 1 µM / activity at 10 µM / IC50: Plasmodium berghei; for activity at 1 µM / activity at 10 µM: Huh-7, 48 h, read-out: INFECTION Ø screening; for activity at 1 µM / activity at 10 µM / INFECTION (IC50 determination): DMSO = 100
Protocol: as §2, with “Briefly, cell culture medium consisted of 1640 RPMI medium supplemented with 10% v/v fetal calf serum, 1% v/v L-glutamine, 1% v/v nonessential amino acids, 1% v/v penicillin/streptomycin, and 10 mM HEPES, pH 7.” left out

[5] = Huh-7, replicate 1, unit (Table 1: µM), read-out: Antiplasmodial activity - IC50 determination, 1. measurement
[6] = Huh-7, replicate 2, unit (Table 1: µM), read-out: Antiplasmodial activity - IC50 determination, 2. measurement
[7] = hepatic stage, Huh-7 cells, parasite load 48 h post-infection, read-out: IC50 P. berghei

COc1cc(C(=O)O[C@@H]2CN3Cc4c(cc5c(c4OC)OCO5)[C@@]24C=C[C@H](OC)C[C@@H]34)cc(OC)c1OC [28n, 11-O-(3,4,5-Trimethoxybenzoyl)ambelline]
viability at 24 h, 10 µM [1]: 52 ± 2% | 1. screening of cytotoxic potential, HepG2 cell line ([2]; human, 24 h, 10 µM): 52.2 | 2. screening of cytotoxic potential, HepG2 cell line ([2]; human, 24 h, 10 µM): 49.89 | 3. screening of cytotoxic potential, HepG2 cell line ([2]; human, 24 h, 10 µM): 54.09 | Ø screening, HepG2 (sheet Graphs) ([2]; human, 24 h, 10 µM): 52.06 | Huh-7 cell viability [3]: cell viability was not affected at antiplasmodial-active concentrations | CELL CONFLUENCY (IC50 determination) ([3]; human, 46 h, 0.001 µM, pH 7): 120.661 | CELL CONFLUENCY (IC50 determination) ([3]; human, 46 h, 0.01 µM, pH 7): 126.131 | CELL CONFLUENCY (IC50 determination) ([3]; human, 46 h, 0.04 µM, pH 7): 117.957 | CELL CONFLUENCY (IC50 determination) ([3]; human, 46 h, 0.07 µM, pH 7): 115.634 | CELL CONFLUENCY (IC50 determination) ([3]; human, 46 h, 0.1 µM, pH 7): 118.616 | CELL CONFLUENCY (IC50 determination) ([3]; human, 46 h, 0.5 µM, pH 7): 106.144 | CELL CONFLUENCY Ø screening ([3]; human, 46 h, 1 µM, pH 7): 69.5 | CELL CONFLUENCY Ø screening ([3]; human, 46 h, 10 µM, pH 7): 68.02 | activity at 1 µM [4]: 2.38% | activity at 10 µM [4]: 0.82% | IC50 ([4]; Huh-7, abstract, read-out: IC50 against hepatic stage of Plasmodium infection): 0.047 µM | IC50 ([4]; Huh-7, mean, unit (Table 1: µM), read-out: Antiplasmodial activity - Ø IC50): 0.047 µM | IC50 [4, 5]: 0.047 µM | IC50 [4, 6]: 0.047 µM | IC50 [4, 7]: 0.047 µM | INFECTION (IC50 determination) ([4]; at 0.001 µM): 132.557 | INFECTION (IC50 determination) ([4]; at 0.01 µM): 115.469 | INFECTION (IC50 determination) ([4]; at 0.04 µM): 56.6784 | INFECTION (IC50 determination) ([4]; at 0.07 µM): 26.9184 | INFECTION (IC50 determination) ([4]; at 0.1 µM): 17.5104 | INFECTION (IC50 determination) ([4]; at 0.5 µM): 2.9184

COc1cccc(C(=O)O[C@@H]2CN3Cc4c(cc5c(c4OC)OCO5)[C@@]24C=C[C@H](OC)C[C@@H]34)c1 [28j, 11-O-(3-Methoxybenzoyl)ambelline]
viability at 24 h, 10 µM ([1]; c = 10 µM, 24 h, MTT, read-out: HepG2 % of cell viability compared to non-treated control (100%)): 81 ± 10% | Ø screening, HepG2 (sheet Graphs) ([2]; c = 10 μM, DMSO = 100, in %): 80.77 | 1. screening of cytotoxic potential, HepG2 cell line ([2]; c = 10 μM, replicate 1, in %): 69.18 | 2. screening of cytotoxic potential, HepG2 cell line ([2]; c = 10 μM, replicate 2, in %): 85.98 | 3. screening of cytotoxic potential, HepG2 cell line ([2]; c = 10 μM, replicate 3, in %): 87.15 | CELL CONFLUENCY Ø screening ([3]; at 1 μM, DMSO = 100, in % (unit assumed)): 109.9 | CELL CONFLUENCY Ø screening ([3]; at 10 μM, DMSO = 100, in % (unit assumed)): 81.02 | activity at 1 µM [4]: 10.8% | activity at 10 µM [4]: 0.612% | IC50 [4, 5]: 0.19 µM | IC50 [4, 6]: 0.362 µM | IC50 ([4]; Huh-7, replicate 3, unit (Table 1: µM), read-out: Antiplasmodial activity - IC50 determination, 3. measurement): 0.232 µM | IC50 [4, 7]: 0.261 ± 0.09 µM

CCOc1cc(OCC)cc(C(=O)O[C@@H]2CN3Cc4c(cc5c(c4OC)OCO5)[C@@]24C=C[C@H](OC)C[C@@H]34)c1 [28o, 11-O-(3,5-Diethoxybenzoyl)ambelline]
viability at 24 h, 10 µM [1]: 56 ± 8% | 1. screening of cytotoxic potential, HepG2 cell line ([2]; human, 24 h, 10 µM): 65.61 | 2. screening of cytotoxic potential, HepG2 cell line ([2]; human, 24 h, 10 µM): 51.07 | 3. screening of cytotoxic potential, HepG2 cell line ([2]; human, 24 h, 10 µM): 51.54 | Ø screening, HepG2 (sheet Graphs) ([2]; human, 24 h, 10 µM): 56.07 | CELL CONFLUENCY Ø screening ([3]; human, 46 h, 1 µM, pH 7): 97.15 | CELL CONFLUENCY Ø screening ([3]; human, 46 h, 10 µM, pH 7): 52.09 | activity at 1 µM [4]: 10.9% | activity at 10 µM [4]: 0.0467% | IC50 [4, 5]: 0.307 µM | IC50 [4, 6]: 0.326 µM | IC50 [4, 7]: 0.316 ± 0.013 µM
